For data set [1], the target named is T1, GCP II (Mus musculus, UniProt O35409).
T1 construct: from tissue; host or cells: kidney of live male CD-1 mice
Description: Binding specificity: blocking of ^11C-MCG kidney uptake by pretreatment with blocker. The data set is classed as in vivo, mice. The conditions noted are these: for reduction in ^11C-MCG uptake: mouse kidney, pretreatment 5 minutes prior with unlabeled MCG (up to 1 mg/kg) or PMPA (1 mg/kg), sacrifice 30 minutes. How it is done: ANOVA, which was used in rodent radiotracer uptake studies, was performed with StatView SE Graphic software, version 1.03 (SAS Institute, Cary, N.C.). For the Students t test, p<0.01 was considered to indicate statistical significance.

Data set [2] relates to GCP II. Nature of the data set: Baboon PET study of renal cortical uptake with tracer kinetic modeling. Format: in vivo, baboon (Papio anubis). How it is done:
(§1) A dynamic PET study of the renal cortical uptake and clearance of ^11C-MCG was performed in an adult male baboon (Papio anubis; body weight, approximately 30 kg). Before each study, two intraveneous catheters and a single arterial catheter were placed for infusion of anesthesia, injection of radiotracer and sampling of arterial blood, respectively. The animal was initially anestitized intramuscurally with 8-10 mg/kg alfadolone and alfaxalone acetate (Saffan; Pitman-Moore, Middlesex, UK) and was intubated. Anesthesia was maintained throughout the study by a continuous intravenous infusion drip of 6-9 mg/kg/h of Saffan. The animal was secured to the PET bed using an individually fitted thermoplastic mask. Pulse, blood pressure, and oxygen saturation were monitored continuously during the studies. Blood oxygen saturation was always maintained above 85%. After the animal was positioned in the PET scanner, transmission scanning was performed with a 370 MBq (10 mCi) ^68Ga source to allow for attenuation correction. PET scanning was started immediately after intravenous injection of 370 MBq (10 mCi) of high-specific-acitivtiy ^11C-MCG (corresponding, at a maximum, to 0.02 μg/kg). Thirty-five simultaneous, contiguous (18 directed planes, 17 cross planes, z-axis 14.45 cm), sequential quantitative tomographic slices fo […] were obtained with a GE Advance PET tomograph (General Electric Medical Systems, Milwaukee, Wis.) in the high-resolution mode (4.25-5.00 mm ful width at half maximum within the slice) over a 90 minute period. The animal was positioned so that the renal cortex was in the filed of view. Approximately 30 arterial blood samples (for radioassay and protein binding) were obtained over 90 minutes. […]
A one-tissue, three parameter (K1=influx, k2 efflux, DV=distribution volume) model was applied to the TACs and to the metabolite-corrected renal uptake curves to describe tracer kinetics with DV (=K1/k2 in ml/ml) used as anindex of receptor density. The effect of blocking with PMPA was evaluated by changes in the Dva nd calculated as 100×(DVbaseline−DVblocker)/DVbaseline. […]

The conditions of data set [3]: in vivo.
Description: Male CD-1 mice (Charles River, Wilmington, Mass.) weighing between 20 and 25 g were used and received an injection of 3.7 MBq (100 μCi) of ^11C-MCG through the tail vein. That amounted to, at a maximum, 0.27 μg/kg. For kinetic studies, mice were killed by cervical dislocation at 5, 15, 30, 60, and 120 min after injection fo the radiotracer in 200 μL of saline vehicle. The brains were removed and placed on ice, and the cerebellum, olfactory bulb, hypothalamus, hippocampus, striatum, parietal cortex, brainstem, and thalamus were harvested. Kidneys, blood, fat, muscle, small intestine, and prostate were also harvested. The tissue samples were weighted, and their radioactivity content was determined in an automated γ counter (1282 Compugamma CS: Pharmacia/LKB Nuclear, Gaithersburg Md.). Aliquots of the injected tracer were counted along with the samples and served as standards for the calculation of percentage injected dose per gram of tissue (% ID/g). To assess binding specificity, groups of three mice each were pretreated with the high affinity GCP II inhibitor PMPA at does of 1, 10 and 100 mg/kg in 200 μL of saline vehicle 5 minutes prior to ^11C-MCG injection. In an additional binding specificity study, animals were pretreated similarly with unlabeled MCG standard at doses of 5, 50, 100, 500, and 1000 μg/kg before ^11C-MCG injection
Data set [4] in a line: Metabolism studies of ^11C-MCG in mice (blood and kidney, HPLC). The conditions noted are these: mice in vivo, n=2. How it is done:
At different times after injection of ^11C-MCG into mice, blood and kidneys were collected to determine the rate of metabolism of the radiotracer. Heparinized blood (0.2-0.3 mL) was diluted to 0.9 mL with cold 0.9% saline and acidified to 0.5 N by the rapid addition of 0.1 mL of 5 N perchloric acid. Following 5 minutes on ice, the precipitate was removed by centrifugation to yield an acid-soluble supernatant that was analyzed by HPLC. Similarly, an acid extract of mouse kidney was obtained from an initial homogenate of two kidneys in 0.8 mL of cold water.
The acid extracts were loaded onto a 4.6×250 mm Prodigy ODS-3 column (Phenomenex) eluted with 10% acetonitrile in 50 mM sodium phosphate buffer pH 2.5 at a flow rate of 2 mL/min. Radioactivity was measured by a dual BGO flow detector and the chromatograph analyzed by Laura software (Bioscan, Washington, D.C.). ^11C-MCG eluted after 4.0 minutes with a minor, earlier eluting product at 2.5 minutes.

The nature of data set [5]: Metabolism of ^11C-MCG in baboon arterial plasma. Format: in vivo, baboon (Papio anubis). How it is done: as §1, with “PET scanning was started immediately after intravenous injection of 370 MBq (10 mCi) of high-specific-acitivtiy ^11C-MCG (corresponding, at a maximum, to 0.02 μg/kg).” left out, “period.” for “period. The animal was positioned so that the renal cortex was in the filed of view. Approximately 30 arterial blood samples (for radioassay and protein binding) were obtained over 90 minutes.”

A short description of another data set: LogP (hydrophilicity). Format: physicochemical.

This note sets out measurements from patent US7408079B2, “Imaging agents and methods of imaging NAALADase or PSMA” (The Johns Hopkins University, priority 2002, dated 2008).

T1 sequence (O35409 whole entry): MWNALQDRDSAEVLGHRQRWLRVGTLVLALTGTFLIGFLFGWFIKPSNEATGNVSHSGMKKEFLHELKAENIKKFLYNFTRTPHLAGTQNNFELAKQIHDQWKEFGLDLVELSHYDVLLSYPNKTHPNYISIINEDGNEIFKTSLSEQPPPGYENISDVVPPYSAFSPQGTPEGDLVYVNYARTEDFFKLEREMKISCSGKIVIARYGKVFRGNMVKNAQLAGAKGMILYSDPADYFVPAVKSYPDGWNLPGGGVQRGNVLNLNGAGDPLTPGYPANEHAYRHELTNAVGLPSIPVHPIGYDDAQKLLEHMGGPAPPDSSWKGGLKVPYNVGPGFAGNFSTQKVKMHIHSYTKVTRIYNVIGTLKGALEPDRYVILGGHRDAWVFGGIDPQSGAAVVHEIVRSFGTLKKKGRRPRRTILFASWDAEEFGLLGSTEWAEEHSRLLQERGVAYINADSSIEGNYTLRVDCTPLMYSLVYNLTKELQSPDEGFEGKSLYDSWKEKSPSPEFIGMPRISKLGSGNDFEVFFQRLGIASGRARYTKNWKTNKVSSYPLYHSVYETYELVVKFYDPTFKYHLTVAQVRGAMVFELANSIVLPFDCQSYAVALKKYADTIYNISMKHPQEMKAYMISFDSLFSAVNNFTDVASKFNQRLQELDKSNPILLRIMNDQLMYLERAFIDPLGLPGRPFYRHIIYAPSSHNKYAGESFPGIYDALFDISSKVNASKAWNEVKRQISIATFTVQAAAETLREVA

Turning to `O=C(O)CCC(CP(=O)(O)O)C(=O)O` (stereo not drawn) [PMPA, reference compound], on GCP II [1], the “reduction in ^11C-MCG uptake” value is “approximately sixfold”. The “reduction in the DV of ^11C-MCG” value in the data set with GCP II [2] (baboon renal cortex, pretreatment with 3 mg/kg PMPA) is recorded as 37%.
For the molecule `CSCC(NC(=O)NC(CCC(=O)O)C(=O)O)C(=O)O` (stereo not drawn) [MCG], the “decreasing ^11C-MCG uptake in mouse kidney (FIG. 1)” value at GCP II [1] (increasing concentration of unlabeled MCG blocker, up to) is listed as “approximately seven fold”. In addition, the “reduction in ^11C-MCG uptake” value at GCP II [1] was “approximately sixfold”.
With `[11CH3]SC[C@H](NC(=O)N[C@@H](CCC(=O)O)C(=O)O)C(=O)O` [^11C-MCG, 2-[3-(1-Carboxy-2-^11C-methylsulfanyl-ethyl)-ureido]-pentanedioic acid], in data set [3] (male, CD-1, mouse, 30 min), the Kidney/blood ratio was found to be 30, the Prostate uptake is recorded as 1.55±1.01 % ID/G, the kidney/muscle ratio turned out to be 73 and the uptake in brainstem was found to be 0.12±0.03 % ID/g. In data set [3] (male, CD-1, mouse, 30 min), this molecule came in with an uptake in cerebellum of less than 0.1 % ID/g, an uptake in cortex of less than 0.1 % ID/g and an uptake in hippocampus of less than 0.1 % ID/g. Besides, the Brain uptake entry in data set [3] (mouse) is listed as “low”. Besides, in data set [4] (30 minute time point), the metabolism in kidney came to 2.0% and the metabolism in plasma came out at 3.5%. In addition, the metabolism in plasma result in data set [4] (60 minutes) is “at most 9.2%”. Besides, the metabolism in kidney in data set [4] (at most over 5-60 minutes) is recorded as not above 10.4%. In data set [5] (baseline, 90 minutes after injection), this molecule returned a peak metabolism of 9.0%. Moreover, the peak metabolism in data set [5] (blocker (2 mg/kg PMPA) 10 minutes prior to tracer, 90 minutes post injection) is 4.0%. For the same molecule, the “DV (distribution volume)” value with GCP II [2] (baboon renal cortex, after pretreatment with 3 mg/kg PMPA) was 0.878 mL/mL. Further, the “DV (distribution volume)” value in the data set on GCP II [2] (male, baboon (Papio anubis), in vivo) turned out to be 1.38 mL/mL. Besides, in the data set “LogP (hydrophilicity)”, the lipophilicity (logP) is -0.235.

As usually defined, the logP is a log measure of how a compound divides between an organic and an aqueous phase. Low readings indicate a more hydrophilic compound, high ones a more lipophilic compound.
